Tests used:
[1] = system: parental SUM-159 xenografts; test: Parental SUM-159 xenografts; assay type: in vivo, SCID mice; settings: 10 mg/kg daily
Description: FIGS. 37A-J: The molecular target of ERX-41 in TNBC is LIPA. […] (FIG. 37B) Knockout clones of LIPA, ACACA, TMEM208, SOAT1 and ARID1A were generated in MDA-MB-231 cells and evaluated for response to ERX-41 using doseresponse curves using CellTiter-Glo assays in vitro. (FIGS. 37C-D) Effect of knockout of LIPA in SUM-159 (FIG. 37C) and MDA-MB436 (FIG. 37D) on dose response curve to ERX-41 using CellTiter-Glo assays in vitro. (FIGS. 37E-F) Dose response curves of SUM-159 parental cells and clones with LIPA KO to thapsigargin (FIG. 37E) and paclitaxel (FIG. 37F). (FIGS. 37G-H) Live cell imaging studies with SYTOX Green to examine ability of 1 μM ERX-41 to induce cell death in parental SUM-159 and SUM-159 clones with LIPA KO, with quantitation (FIG. 37G) and time-lapsed photomicrographs at 0 h and 30 h ((FIG. 37H). (FIGS. 37I-J) SCID mice were implanted with either parental SUM-159 or SUM-159 clones with LIPA KO (n=6, each group) and tumors were allowed to establish (150 mm^3). Following daily intraperitoneal administration of 10 mg/kg ERX-41, tumor sizes were measured and graphed (FIG. 37I), along with mice body weights (FIG. 37J). *p<0.05. **p<0.01; ***p<0.001.
The molecular target of ERX-41 in TNBC is LIPA. […] Knockout clones of LIPA, SLC5A3, SMAP2, TMEM208, SOAT1 and ARID1A were generated in multiple TNBC cells and evaluated for response to ERX-41.

[2] = system: ERMT (therapy resistant) xenografts; test: ERMT therapy resistant xenografts; assay type: in vivo, nude mice; settings: 10 mg/kg/day oral
Method: FIGS. 8A & 8B show the effect of TK41 (i.e., ERX-41) on therapy resistant cancer cells. ERMT (therapy resistant) xenografts (n=8) were established in nude mice and treated with vehicle (circle markers) or 10 mg/kg/day/oral ERX-41 (square markers).

TNBC cells = test: De novo protein synthesis, puromycin labeled nascent proteins; assay type: cell-based; settings: 4 h and 16 h
Description: Total protein is shown on right with coomassie blue staining.
The basal level of expression of endoplasmic reticulum stress and unfolded protein response correlates with TK41 activity (FIG. 28). Modulation of the level of these stress proteins affects the activity of TK41. Thus, the basal level of expression of endoplasmic reticulum stress and unfolded protein response proteins may serve as a biomarker to predict response to TK41. […] Without wishing to be bound by any particular theory, the mechanism of action of TK41 may operate comprise targeting either ER or TLX and inducing endoplasmic reticulum stress, subsequent apoptosis, and blocking autophagic fusion (FIG. 30).

CC(C)COc1cc(C(=O)Nc2ccc(C(=O)N[C@H]3CC[C@H](C)CC3)cc2OCC(C)C)ccc1NC(=O)c1ccc([N+](=O)[O-])c(OCCO)c1 [TK41]
response of parental SUM-159 xenografts [1]: responded significantly
activity against ERMT tumors [2]: has activity against ERMT tumors
de novo protein synthesis (TNBC cells): shuts down de novo protein synthesis
de novo protein synthesis (TNBC cells; listed as TK-41): decreases global new protein synthesis
